How the values were obtained:
[1] = Dose normalised AUC in rat after po administration; settings: in vivo
[2] = Dose normalised AUC in monkey after po administration; settings: macaca, in vivo
[3] = Dose normalised AUC in dog after po administration; settings: in vivo
[4] = Dose normalised AUC in human after po administration; settings: in vivo

NCC1(CC(=O)O)CCCCC1 [GABAPENTIN]
DNAUC [1]: 87.72 kg·min/L
DNAUC [2]: 156.24 kg·min/L
DNAUC [3]: 290.4 kg·min/L
DNAUC [4]: 369.82 kg·min/L

CC1COc2c(N3CCN(C)CC3)c(F)cc3c(=O)c(C(=O)O)cn1c23 (stereo not drawn) [OFLOXACIN]
DNAUC [1]: 32.85 kg·min/L
DNAUC [2]: 218.1 kg·min/L
DNAUC [3]: 407.7 kg·min/L
DNAUC [4]: 297.93 kg·min/L

CCN(CC)CC(=O)Nc1c(C)cccc1C [LIDOCAINE]
DNAUC [1]: 1.64 kg·min/L
DNAUC [2]: 3.79 kg·min/L
DNAUC [3]: 8.38 kg·min/L
DNAUC [4]: 38.04 kg·min/L

C[C@H](C(=O)O)c1ccc2oc(-c3ccc(F)cc3)nc2c1 [FLUNOXAPROFEN]
DNAUC [1]: 14620.68 kg·min/L
DNAUC [2]: 1464.8 kg·min/L
DNAUC [3]: 960.78 kg·min/L
DNAUC [4]: 2794 kg·min/L

CCN[C@@H](C)Cc1cccc(C(F)(F)F)c1 [DEXFENFLURAMINE]
DNAUC [1]: 7.2 kg·min/L
DNAUC [2]: 4.38 kg·min/L
DNAUC [3]: 6.72 kg·min/L
DNAUC [4]: 80 kg·min/L

O=c1ccc2ccccc2o1 [COUMARIN]
DNAUC [1]: 37.5 kg·min/L
DNAUC [2]: 31.8 kg·min/L
DNAUC [3]: 40.38 kg·min/L
DNAUC [4]: 2.03 kg·min/L

C1=C(c2ccccc2)CCN(C[C@@H]2CCC=C(c3ccccc3)C2)C1 [CI-1007]
DNAUC [1]: 2.65 kg·min/L
DNAUC [2]: 2.34 kg·min/L
DNAUC [3]: 1.46 kg·min/L
DNAUC [4]: 2.63 kg·min/L

CC(C(=O)O)c1ccc(C(=O)c2cccs2)cc1 (stereo not drawn) [SUPROFEN]
DNAUC [1]: 320 kg·min/L
DNAUC [2]: 355 kg·min/L
DNAUC [3]: 1108 kg·min/L
DNAUC [4]: 619.76 kg·min/L

CC(C)c1nc(CN(C)C(=O)N[C@H](C(=O)N[C@@H](Cc2ccccc2)C[C@H](O)[C@H](Cc2ccccc2)NC(=O)OCc2cncs2)C(C)C)cs1 [RITONAVIR]
DNAUC [1]: 41.59 kg·min/L
DNAUC [2]: 27.18 kg·min/L
DNAUC [3]: 101.08 kg·min/L
DNAUC [4]: 370.17 kg·min/L

COc1ccc(C(C)C)cc1CN[C@H]1C2CCN(CC2)[C@H]1C(c1ccccc1)c1ccccc1 [EZLOPITANT]
DNAUC [1]: 2.36 kg·min/L
DNAUC [2]: 0.6 kg·min/L
DNAUC [3]: 10.82 kg·min/L
DNAUC [4]: 125 kg·min/L

CC(C(=O)O)c1ccc(-c2ccccc2)c(F)c1 (stereo not drawn) [FLURBIPROFEN]
DNAUC [1]: 1042.5 kg·min/L
DNAUC [2]: 2364.5 kg·min/L
DNAUC [3]: 4718.5 kg·min/L
DNAUC [4]: 2900.56 kg·min/L

CN1C(C(=O)Nc2nccs2)=C(O)c2ccccc2S1(=O)=O [SUDOXICAM]
DNAUC [1]: 4415.2 kg·min/L
DNAUC [2]: 3821.3 kg·min/L
DNAUC [3]: 5554 kg·min/L
DNAUC [4]: 8161.43 kg·min/L

Source: ChEMBL document CHEMBL1614631, “Comparative evaluation of oral systemic exposure of 56 xenobiotics in rat, dog, monkey and human” (Xenobiotica, 2005)
